Test results as given in patent publication US9345793B2, “Compounds for binding to the platelet specific glycoprotein IIB/IIIA and their use for imaging of thrombi” (PIRAMAL IMAGING SA, priority 2011, dated 2016).
Read-outs that look alike come from different tables or passages of the source.

Key:
[1] = Plasma protein binding by equilibrium dialysis, monkey plasma; type: in vitro ADME; conditions: plasma (10% in buffer), Cynomolgus, read-out: Fu (Mari)
Method: (§1) The determination of the plasma protein binding of compounds was performed by means of an equilibrium dialysis in a 96-well HT plate. Solutions of test compound (0.3 μM and 3 μM) were prepared in buffer (50 mM phosphate buffer) and 10% plasma. A 96 well HT dialysis plate (Teflon) was assembled so that each well was divided in two compartments by a semi-permeable cellulose membrane (regenerated Cellulose, MWCO 12-14K). The phosphate buffer solution (150 μL) was added to one side of the membrane and the plasma solution to the other side (150 μL). The compounds were added to the plasma solution side and were incubated at 37 degree. The unbound fraction of the compound could pass through the membrane and equilibrium between the two sides could be reached (6-8 h, 37° C.). Both solutions were analyzed for each compound (plasma-free and plasma-containing) by LC-MS. Both solutions for each compound were diluted with buffer or plasma to reach the same matrix (10% plasma) for analysis and were precipitated by the addition of methanol. The fraction unbound (Fu) was calculated as the quotient of the equilibrium concentrations of the compound in plasma-free and plasma-containing solution.

rat microsomes = test: In vitro metabolic stability in liver microsomes, rat; type: in vitro ADME; conditions: Wistar, male, calculated
Method: (§2) The incubation concentration was 0.3 μM. […] The samples were frozen over night at −20° C.

[2] = target: human GPIIb/IIIa receptor (Homo sapiens (Human), UniProt P05106+P08514); test: Affinity assay: displacement of tritiated reference compound from immobilized purified GPIIb/IIIa; type: binding
human GPIIb/IIIa receptor, sequence (P08514 32-887): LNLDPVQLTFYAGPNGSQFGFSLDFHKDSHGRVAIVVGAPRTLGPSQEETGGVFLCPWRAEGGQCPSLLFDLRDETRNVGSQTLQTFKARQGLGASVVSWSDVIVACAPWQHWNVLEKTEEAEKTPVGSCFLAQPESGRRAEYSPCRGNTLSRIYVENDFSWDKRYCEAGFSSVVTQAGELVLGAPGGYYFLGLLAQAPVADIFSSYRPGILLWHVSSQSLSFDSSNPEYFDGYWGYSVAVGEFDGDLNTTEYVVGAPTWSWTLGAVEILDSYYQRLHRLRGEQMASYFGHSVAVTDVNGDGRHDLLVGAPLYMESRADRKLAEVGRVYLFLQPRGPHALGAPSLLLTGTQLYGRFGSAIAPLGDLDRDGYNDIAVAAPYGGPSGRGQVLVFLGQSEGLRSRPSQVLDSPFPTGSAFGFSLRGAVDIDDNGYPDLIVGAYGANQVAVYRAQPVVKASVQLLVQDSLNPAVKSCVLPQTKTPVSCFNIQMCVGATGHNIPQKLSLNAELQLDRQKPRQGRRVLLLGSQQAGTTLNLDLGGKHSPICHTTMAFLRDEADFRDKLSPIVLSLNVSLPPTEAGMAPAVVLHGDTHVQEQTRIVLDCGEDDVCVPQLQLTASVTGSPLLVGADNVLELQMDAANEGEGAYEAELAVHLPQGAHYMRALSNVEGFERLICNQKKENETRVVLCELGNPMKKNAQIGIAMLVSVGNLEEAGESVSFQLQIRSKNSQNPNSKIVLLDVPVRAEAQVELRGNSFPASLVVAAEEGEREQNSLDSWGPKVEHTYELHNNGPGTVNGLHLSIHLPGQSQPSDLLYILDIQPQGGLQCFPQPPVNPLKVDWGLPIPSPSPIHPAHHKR
human GPIIb/IIIa receptor, sequence (P08514 891-1039 partner): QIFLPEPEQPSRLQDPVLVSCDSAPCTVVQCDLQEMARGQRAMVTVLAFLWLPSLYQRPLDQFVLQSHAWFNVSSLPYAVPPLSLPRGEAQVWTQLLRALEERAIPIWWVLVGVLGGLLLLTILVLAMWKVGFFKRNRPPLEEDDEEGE
human GPIIb/IIIa receptor, sequence (P05106 27-788): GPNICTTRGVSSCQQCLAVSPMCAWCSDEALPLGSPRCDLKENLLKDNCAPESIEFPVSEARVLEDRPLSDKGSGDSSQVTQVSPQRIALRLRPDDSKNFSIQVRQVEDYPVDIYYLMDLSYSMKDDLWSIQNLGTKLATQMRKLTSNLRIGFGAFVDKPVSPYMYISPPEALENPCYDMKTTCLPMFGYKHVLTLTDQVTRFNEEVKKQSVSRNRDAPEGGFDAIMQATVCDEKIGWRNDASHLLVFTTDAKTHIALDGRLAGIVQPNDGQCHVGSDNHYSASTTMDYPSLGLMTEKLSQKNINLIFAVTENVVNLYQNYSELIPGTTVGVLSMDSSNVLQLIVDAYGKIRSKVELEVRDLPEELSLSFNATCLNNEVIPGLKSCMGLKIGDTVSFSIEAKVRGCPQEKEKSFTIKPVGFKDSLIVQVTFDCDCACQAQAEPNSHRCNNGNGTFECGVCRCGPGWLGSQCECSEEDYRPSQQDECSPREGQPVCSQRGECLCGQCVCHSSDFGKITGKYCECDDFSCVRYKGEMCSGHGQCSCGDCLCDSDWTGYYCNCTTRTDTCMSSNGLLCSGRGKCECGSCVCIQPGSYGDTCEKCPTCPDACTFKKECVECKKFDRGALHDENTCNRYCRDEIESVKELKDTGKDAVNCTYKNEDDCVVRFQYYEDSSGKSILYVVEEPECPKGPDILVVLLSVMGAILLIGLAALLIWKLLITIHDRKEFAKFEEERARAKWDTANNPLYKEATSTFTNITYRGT
Method: Affinity assay: In the first step human GPIIb/IIIa purified from human platelets was immobilized on a 96-well solid plate. After 48 hours the plates were washed and the unspecific binding sites were blocked with Roti®-Block. 2. In the next step, the plates were simultaneously incubated with a tritium labeled known GPIIb/IIIa binder (^3H) mixed with increasing concentrations of the novel small molecule compounds (inhibitor, ^19F). The higher the affinity of the inhibitor, the lower the bound fraction of the tritiated known GPIIb/IIIa binder (^3H) was. The fraction of tritiated compound (^3H), which is not displaced by inhibitor, was measured in a microplate scintillation counter.
Purified human glycoprotein IIb/IIIa (20 mM Tris-HCl, 0.1 M NaCl, 0.1% Triton X-100, 1 mM CaCl2, 0.05% NaN3, 50% Glycerol, pH 7.4) was purchased from Enzyme Research Laboratories Inc. (South Bend, Ind.). The GPIIb/IIIa receptor was diluted in phosphate-buffered saline (Dulbecco's Phosphate Buffered Saline (D-PBS(+)) with calcium and magnesium, GIBCO®, Invitrogen) with 0.01% bovine serum albumin (albumin from bovine serum—lyophilized powder, ≧96%, Sigma).
The GPIIb/IIIa receptor was immobilized 48 hours at least (100 μL per well, 48 to maximum 96 hours) on a 96-well solid plate (Immuno Plate MaxiSorp™, Nunc, Roskilde, Denmark) at 277 K to 280 K and at a concentration of 0.1 μg per well to 1 μg per well. As negative control one row of the plate (n=8) was incubated just with 2% bovine serum albumin (200 μper well, albumin from bovine serum—lyophilized powder, […], Sigma, diluted in D-PBS(+)). After washing three times with the wash buffer (230 μL per well, Dulbecco's Phosphate Buffered Saline (D-PBS (−)) contains no calcium or magnesium, GIBCO®, Invitrogen) residual exposed plastic and unspecific binding sites were blocked by incubating the plate with a special blocking solution (200 μL per well, Roti®-Block, Carl Roth GmbH Co KG, Karlsruhe) containing 2% bovine serum albumin (Albumin from bovine serum—lyophilized powder, ≧96%, Sigma) 1 hour at room temperature.
After washing three times with the wash buffer 50 μL of tritiated reference compound (60 nM, ^3H-labeled compound) and 50 μL of novel compound (inhibitor, ^19F) were simultaneously added to each well and incubated for 1 hour at room temperature. Several concentrations of each novel inhibitor (0.1, 1, 2, 5, 10, 20 50, 100, 200, 500, 1000, 2000, 5000, 10000 and 20000 nM) were investigated. At each concentration of inhibitor a fourfold determination was performed.
The maximum value of tritiated reference compound was determined without addition of inhibitor (n=8). To exclude unspecific binding of ^3H-reference compound wells without glycoprotein receptors were used as negative controls (n=12, identically treated just without GP IIb/IIIa receptors).
After one hour the plate was washed three times with phosphate-buffered saline (200 μL per well, Dulbecco's Phosphate Buffered Saline (D-PBS(+)), GIBCO®, Invitrogen). Following 140 μL of liquid scintillation cocktail (MicroScint™ 40 aqueous, Perkin Elmer) was added to each well. After 15 min at room temperature the plates were measured at the microplate scintillation counter (TopCount NXT v2.13, Perkin Elmer, Packard Instrument Company).
In the first step human glycoprotein IIb/IIIa, which is purified from human platelets, was immobilized on a 96-well solid plate. After 48 hours at least the plates were washed and the unspecific binding sites were blocked with Roti®-Block. In the next step, the plates were simultaneously incubated with a tritium labeled reference compound and the novel small molecule compound (inhibitor). The higher the affinity of the inhibitor, the smaller is the bound fraction of reference compound. The fraction of tritiated reference compound, which is not displaced by inhibitor, was measured at a microplate scintillation counter.

monkey microsomes = test: In vitro metabolic stability in liver microsomes, monkey; type: in vitro ADME; conditions: Cynomolgus, female, calculated
Method: as §2

Human liver microsomes = test: In vitro metabolic stability in liver microsomes, human; type: in vitro ADME; conditions: both, 0.3 μM, pH 7.4
Method: as §2

[3] = Plasma protein binding by equilibrium dialysis, human plasma; type: in vitro ADME; conditions: plasma (10% in buffer), Caucasian, read-out: Fu (Mari)
Method: as §1

mouse microsomes = test: In vitro metabolic stability in liver microsomes, mouse; type: in vitro ADME; conditions: NMRI, female, calculated
Method: as §2

[4] = In vitro metabolic stability in liver microsomes, human; type: in vitro ADME; conditions: pH 7.4
Method: as §2

[5] = 19F compounds vs 60 nM 3H-labeled reference compound, 1 hour at room temperature, read-out: IC50 human
[6] = values repeated beside the 18F-compound, read-out: IC50 human (corresponding 19F-compound, Table 2)

A fraction unbound at 0.3 μM [1] of 0.99, a fraction unbound at 3 μM [1] of 0.93 and a CLblood (rat microsomes) of 2.4 mL/day/kg were found for `O=C(O)C[C@H](NC(=O)[C@@H]1CCCN(C(=O)CCC2CCNCC2)C1)c1cccc(OCCF)c1` [Example 1, (3S)-3-[3-(2-Fluoroethoxy)phenyl]-3-[({(3R)-1-[3-(piperidin-4-yl)propanoyl]piperidin-3-yl}carbonyl)amino]propanoic acid] in this work. It also gave an IC50 [2, 5] of 101 nM, an IC50 [2, 6] of 101 nM and a CLblood (monkey microsomes) of 2.4 mL/day/kg. It also gave a CLblood (Human liver microsomes) of 2.4 mL/day/kg, a fraction unbound at 0.3 μM [3] of 0.91 and a fraction unbound at 3 μM [3] of 0.9.

A fraction unbound at 0.3 μM [1] of 1, a fraction unbound at 3 μM [1] of 1 and a CLblood (rat microsomes) of 2.4 mL/day/kg were found for `O=C(O)C[C@H](NC(=O)[C@@H]1CCCN(C(=O)CCC2CCNCC2)C1)c1cncc(OCCF)c1` [Example 3, (3S)-3-[5-(2-Fluoroethoxy)pyridin-3-yl]-3-[({(3R)-1-[3-(piperidin-4-yl)propanoyl]-piperidin-3-yl}carbonyl)amino]propanoic acid] in this work. It also gave an IC50 [2, 5] of 20 nM, an IC50 [2, 6] of 20 nM and a CLblood (mouse microsomes) of 2.4 mL/day/kg. The CLblood (monkey microsomes) was 2.4 mL/day/kg, the recovery at 60 min, 0.3 μM [4] was ~100% and the CLblood (Human liver microsomes) was 2.4 mL/day/kg. The fraction unbound at 0.3 μM [3] was 0.96 and the fraction unbound at 3 μM [3] was 1.
